From BindingDB's records for doi:10.1021/acs.jmedchem.9b00881 (University of Auckland, 2020)

Assays:
[1] = Inhibition of perforin in human KHYG-1 cells pre-treated with compound for 20 mins assessed as reduction in KHYG-1 cells-mediated cell lysis of human K562 cells measured after 4 hrs by 51Cr release based gamma counting method
[2] = Inhibition of perforin (unknown origin) assessed as reduction in perforin-mediated cell lysis in human Jurkat T cells incubated for 30 mins by 51Cr release based gamma counting method

SMILES: COc1ncc(-c2ccc(-c3cnc4c(c3)CN(C)C4=O)s2)cc1NS(=O)(=O)c1ccccc1C(F)(F)F
- IC50 [1]: 2.21 µM
- IC50 [2]: 0.78 µM

SMILES: O=C1NCc2ncc(-c3ccc(-c4cncc(NS(=O)(=O)c5ccc(F)cc5F)c4)s3)cc21
- IC50 [1]: 6.8 µM
- IC50 [2]: > 20 µM

SMILES: O=C1c2ccc(-c3ccc(-c4cncc(NS(=O)(=O)c5ccc(F)cc5F)c4)s3)cc2CN1CCCO
- IC50 [2]: > 20 µM

SMILES: O=C1c2ccc(-c3ccc(-c4cncc(NS(=O)(=O)c5ccc(F)cc5F)c4)s3)cc2CN1CC(O)CO (configuration not stated)
- IC50 [2]: 14.2 µM

SMILES: O=C1c2ccc(-c3ccc(-c4cncc(NS(=O)(=O)c5ccc(F)cc5F)c4)s3)cc2CN1CCN1CCCC1
- IC50 [2]: > 20 µM

SMILES: O=C1c2ccc(-c3ccc(-c4cncc(NS(=O)(=O)c5ccc(F)cc5F)c4)s3)cc2CN1CCN1CCCCC1
- IC50 [2]: > 20 µM

SMILES: O=C1NCc2cc(-c3ccc(-c4cncc(NS(=O)(=O)c5ccc(F)cc5F)c4)s3)cnc21
- IC50 [2]: 5.73 µM

SMILES: CN1Cc2cc(-c3ccc(-c4cncc(NS(=O)(=O)c5cccc(C(F)(F)F)c5)c4)s3)cnc2C1=O
- IC50 [1]: 3.4 µM
- IC50 [2]: > 20 µM

SMILES: CN1Cc2cc(-c3ccc(-c4cncc(NS(=O)(=O)c5ccc(F)cc5F)c4)s3)cnc2C1=O
- IC50 [1]: 7.5 µM
- IC50 [2]: 4.3 µM

SMILES: COc1ncc(-c2ccc(-c3cnc4c(c3)CN(C)C4=O)s2)cc1NS(=O)(=O)c1ccccc1[N+](=O)[O-]
- IC50 [1]: 1.6 µM
- IC50 [2]: 2.3 µM

SMILES: CN1Cc2cc(-c3ccc(-c4cncc(NS(=O)(=O)c5ccccc5C(F)(F)F)c4)s3)cnc2C1=O
- IC50 [1]: 3.3 µM
- IC50 [2]: 1.38 µM

SMILES: COc1ncc(-c2ccc(-c3cnc4c(c3)CN(C)C4=O)s2)cc1NS(=O)(=O)c1ccc(F)cc1F
- IC50 [1]: 4.43 µM
- IC50 [2]: 3.34 µM

SMILES: CN1CCN(CCN2Cc3cc(-c4ccc(-c5cncc(NS(=O)(=O)c6ccc(F)cc6F)c5)s4)ccc3C2=O)CC1
- IC50 [2]: > 20 µM

SMILES: CN(C)CCN1Cc2cc(-c3ccc(-c4cncc(NS(=O)(=O)c5ccc(F)cc5F)c4)s3)ccc2C1=O
- IC50 [2]: > 20 µM

SMILES: O=C1c2ccc(-c3ccc(-c4cncc(NS(=O)(=O)c5ccc(F)cc5F)c4)s3)cc2CN1CCN1CCOCC1
- IC50 [2]: 17 µM
